# From patent US20240217982A1, “KRAS INHIBITORS” (Bristol-Myers Squibb Company, priority 2021, published 2024)
# How the values were obtained:
# KRAS G12D [1] = molecular target: T1, KRAS G12D (Homo sapiens (Human), UniProt P01116, G12D); test: KRAS G12D RAF Disruption Assay (HTRF); assay type: biochemical; conditions: recombinant GMPPNP-loaded KRAS G12D (5 nM), GST-RAF1 RBD (9 nM), HTRF signal
# Method: Recombinant GMPPNP-loaded KRAS G12D (5 nM) was treated with compound at room temperature for 20 minutes in assay buffer (50 mM Tris pH 7.5, 100 mM NaCl, 1 mM MgCl2, 1 mM DTT, 100 ug/mL BSA).
# KRAS G12D [2] = molecular target: T1, KRAS G12D; test: KRAS G12D Nucleotide Exchange Assay (HTRF); assay type: biochemical; conditions: recombinant GDP-loaded KRAS G12D (20 nM), BIODIPY-labeled GDP (400 nM), recombinant SOS (10 nM), HTRF signal
# Method: Recombinant GDP-loaded KRAS G12D (20 nM) was treated with compound at room temperature for 20 minutes in assay buffer (10 mM Hepes pH 7.4, 150 mM NaCl, 5 mM MgCl2, 0.0025% Igepal-CA630, 0.05% BSA, 1 mM DTT, 0.5 nM SA-Tb). BIODIPY-labeled GDP (400 nM) and recombinant SOS (10 nM) were added, and the reaction was incubated for 30 minutes.
# T1 sequence (P01116-2 other isoform, or with tags, fused parts or gaps G12D): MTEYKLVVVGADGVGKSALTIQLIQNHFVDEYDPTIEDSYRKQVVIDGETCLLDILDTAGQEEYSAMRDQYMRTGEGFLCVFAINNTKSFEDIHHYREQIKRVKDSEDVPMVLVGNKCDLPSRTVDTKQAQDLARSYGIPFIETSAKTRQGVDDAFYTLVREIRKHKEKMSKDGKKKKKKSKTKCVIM
Compound,"KRASG12D RAF Disruption Assay (IC50, µM) (KRAS G12D [1])","KRASG12D Nucleotide Exchange Assay (IC50, µM) (KRAS G12D [2])"
"CN1CCC[C@H]1COc1nc(N2CC[C@H]3CC[C@@H](C2)N3)c2cc(Cl)c(-c3cc(O)cc4ccccc34)c(F)c2n1 [Example 6, 4-{6-chloro-4-[(1S,6R)-3,9-diazabicyclo[4.2.1]nonan-3-yl]-8-fluoro-2-{[(2S)-1-methylpyrrolidin-2-yl]methoxy}quinazolin-7-yl}naphthalen-2-ol]",3.68 µM,0.01 µM
"Oc1cc(-c2c(Cl)cc3c(N4CC[C@H]5CC[C@@H](C4)N5)nc(OC[C@]45CCCN4C[C@H](F)C5)nc3c2F)c2ccccc2c1 [Example 7, 4-(2-{[(2R,7aR)-2-fluoro-hexahydro-1H-pyrrolizin-7a-yl]methoxy}-6-chloro-4-[(1S,6R)-3,9-diazabicyclo[4.2.1]nonan-3-yl]-8-fluoroquinazolin-7-yl)naphthalen-2-ol]",0.48 µM,<0.002 µM
"CN1CCC[C@@]2(COc3nc(N4CC[C@H]5CC[C@@H](C4)N5)c4ccc(-c5cc(O)cc6ccccc56)c(F)c4n3)CCC[C@@H]12 [Example 9-1, 4-(2-{[(4aS,7aR)-1-methyl-octahydro-1H-cyclopenta[b]pyridin-4a-yl]methoxy}-4-[(1S,6R)-3,9-diazabicyclo[4.2.1]nonan-3-yl]-8-fluoroquinazolin-7-yl)naphthalen-2-ol]",5.1 µM,0.04 µM
"CN1CCC[C@@]2(COc3nc(N4CC[C@H]5CC[C@@H](C4)N5)c4ccc(-c5cc(O)cc6cccc(F)c56)c(F)c4n3)CCC[C@@H]12 [Example 9-2, 4-(2-{[(4aS,7aR)-1-methyl-octahydro-1H-cyclopenta[b]pyridin-4a-yl]methoxy}-4-[(1S,6R)-3,9-diazabicyclo[4.2.1]nonan-3-yl]-8-fluoroquinazolin-7-yl)-5-fluoronaphthalen-2-ol]",2.0 µM,0.03 µM
"CCc1cccc2cc(O)cc(-c3ccc4c(N5CC[C@H]6CC[C@@H](C5)N6)nc(OC[C@]56CCC[C@H]5N(C)CCC6)nc4c3F)c12 [Example 9-3, 4-(2-{[(4aS,7aR)-1-methyl-octahydro-1H-cyclopenta[b]pyridin-4a-yl]methoxy}-4-[(1S,6R)-3,9-diazabicyclo[4.2.1]nonan-3-yl]-8-fluoroquinazolin-7-yl)-5-ethylnaphthalen-2-ol]",3.0 µM,0.05 µM
"C#Cc1c(F)ccc2cc(O)cc(-c3ccc4c(N5CC[C@H]6CC[C@@H](C5)N6)nc(OC[C@]56CCC[C@H]5N(C)CCC6)nc4c3F)c12 [Example 9-4, 4-(2-{[(4aS,7aR)-1-methyl-octahydro-1H-cyclopenta[b]pyridin-4a-yl]methoxy}-4-[(1S,6R)-3,9-diazabicyclo[4.2.1]nonan-3-yl]-8-fluoroquinazolin-7-yl)-5-ethynyl-6-fluoronaphthalen-2-ol]",0.2 µM,0.02 µM
"Cc1cc(N)nc(-c2c(Cl)cc3c(N4CC[C@H]5CC[C@@H](C4)N5)nc(OCC4(CN(C)C)CC4)nc3c2F)c1C(F)(F)F [Example 10-1, 6-{6-chloro-4-[(1S,6R)-3,9-diazabicyclo[4.2.1]nonan-3-yl]-2-({1-[(dimethylamino)methyl]cyclopropyl}methoxy)-8-fluoroquinazolin-7-yl}-4-methyl-5-(trifluoromethyl)pyridin-2-amine]",1.0 µM,0.007 µM
"Cc1cc(N)nc(-c2c(Cl)cc3c(N4CC[C@H]5CC[C@@H](C4)N5)nc(OCC4(CN5C6CCC5COC6)CC4)nc3c2F)c1C(F)(F)F [Example 10-2, 6-{6-chloro-4-[(1S,6R)-3,9-diazabicyclo[4.2.1]nonan-3-yl]-8-fluoro-2-{[1-({3-oxa-8-azabicyclo[3.2.1]octan-8-yl}methyl)cyclopropyl]methoxy}quinazolin-7-yl}-4-methyl-5-(trifluoromethyl)pyridin-2-amine]",1.0 µM,0.006 µM
"Cc1cc(N)nc(-c2c(Cl)cc3c(N4CC[C@H]5CC[C@@H](C4)N5)nc(OCC4(CN5CCCC(F)C5)CC4)nc3c2F)c1C(F)(F)F (stereo partly drawn) [Example 10-3, 6-{6-chloro-4-[(1S,6R)-3,9-diazabicyclo[4.2.1]nonan-3-yl]-8-fluoro-2-({1-[(3-fluoropiperidin-1-yl)methyl]cyclopropyl}methoxy)quinazolin-7-yl}-4-methyl-5-(trifluoromethyl)pyridin-2-amine]",2.7 µM,0.01 µM
"Cc1cc(N)nc(-c2c(Cl)cc3c(N4CC[C@H]5CC[C@@H](C4)N5)nc(OCC4(CN5CC[C@@H](F)C5)CC4)nc3c2F)c1C(F)(F)F [Example 10-4, 6-{6-chloro-4-[(1S,6R)-3,9-diazabicyclo[4.2.1]nonan-3-yl]-8-fluoro-2-[(1-{[(3R)-3-fluoropyrrolidin-1-yl]methyl}cyclopropyl)methoxy]quinazolin-7-yl}-4-methyl-5-(trifluoromethyl)pyridin-2-amine]",41.5 µM,0.11 µM
"Cc1cc(N)nc(-c2c(Cl)cc3c(N4CC[C@H]5CC[C@@H](C4)N5)nc(OCC4(CN5CCOCC5)CC4)nc3c2F)c1C(F)(F)F [Example 10-7, 6-{6-chloro-4-[(1S,6R)-3,9-diazabicyclo[4.2.1]nonan-3-yl]-8-fluoro-2-({1-[(morpholin-4-yl)methyl]cyclopropyl}methoxy)quinazolin-7-yl}-4-methyl-5-(trifluoromethyl)pyridin-2-amine]",12.1 µM,0.06 µM
"Cc1cc(N)nc(-c2c(Cl)cc3c(N4CC[C@H]5CC[C@@H](C4)N5)nc(OCC4(CN5CCCCC5)CC4)nc3c2F)c1C(F)(F)F [Example 10-8, 6-{6-chloro-4-[(1S,6R)-3,9-diazabicyclo[4.2.1]nonan-3-yl]-8-fluoro-2-({1-[(piperidin-1-yl)methyl]cyclopropyl}methoxy)quinazolin-7-yl}-4-methyl-5-(trifluoromethyl)pyridin-2-amine]",2.6 µM,0.02 µM
"Cc1cc(N)nc(-c2c(Cl)cc3c(N4CC[C@H]5CC[C@@H](C4)N5)nc(OCC4(CN5CCCC(F)C5)CC4)nc3c2F)c1C(F)(F)F (stereo partly drawn) [Example 10-9, 6-{6-chloro-4-[(1S,6R)-3,9-diazabicyclo[4.2.1]nonan-3-yl]-8-fluoro-2-({1-[(3-fluoropiperidin-1-yl)methyl]cyclopropyl}methoxy)quinazolin-7-yl}-4-methyl-5-(trifluoromethyl)pyridin-2-amine]",51.0 µM,0.41 µM
